Test results from US12258327B2, “5-membered heteroaryl-containing aminopyridine compounds as EGFR inhibitors” (YUHAN CORPORATION, priority 2021, dated 2025).
Where two headings read alike, the source gives them in different places.

How the values were obtained:
EGFR L858R/C797S = EGFR L858R/C797S (Homo sapiens, UniProt P00533, C797S/L858R); assay: Biochemical EGFR kinase assay (Lance Ultra TR-FRET), double mutant L858R/C797S
Procedure, shortened: (§1)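 Enzyme reactions lasted 1 hour at room temperature with test compounds between 0.003 and 10 μM, followed by 10 mM EDTA quench.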

EGFR L858R/T790M/C797S = EGFR L858R/T790M/C797S (Homo sapiens, UniProt P00533, C797S/L858R/T790M); assay: Biochemical EGFR kinase assay (Lance Ultra TR-FRET), triple mutant L858R/T790M/C797S
Procedure, shortened: as §1

EGFR del19/T790M/C797S = EGFR del19/T790M/C797S (Homo sapiens, UniProt P00533, C797S/DEL746-750/T790M); assay: Biochemical EGFR kinase assay (Lance Ultra TR-FRET), triple mutant del19/T790M/C797S
Procedure, shortened: as §1

EGFR wildtype (WT) = EGFR wildtype (WT) (Homo sapiens, UniProt P00533); assay: Biochemical EGFR kinase assay (Lance Ultra TR-FRET), wildtype
Procedure, shortened: as §1

EGFR del19/C797S = EGFR del19/C797S (Homo sapiens, UniProt P00533, C797S/DEL746-750); assay: Biochemical EGFR kinase assay (Lance Ultra TR-FRET), double mutant del19/C797S
Procedure, shortened: as §1

[1] = IC50 L858R/C797S (nM) 100 μM ATP, 100 μM ATP
[2] = Km ATP, read-out: IC50 L858R/C797S (nM) Km ATP
[3] = IC50 L858R/T790M/C797S (nM) 100 μM ATP, 100 μM ATP
[4] = Km ATP, read-out: IC50 L858R/T790M/C797S (nM) Km ATP
[5] = IC50 del19/T790M/C797S (nM) 100 μM ATP, 100 μM ATP
[6] = Km ATP, read-out: IC50 del19/T790M/C797S (nM) Km ATP
[7] = IC50 WT (nM) 100 μM ATP, 100 μM ATP
[8] = Km ATP, read-out: IC50 WT (nM) Km ATP
[9] = IC50 del19/C797S (nM) 100 μM ATP, 100 μM ATP
[10] = Km ATP, read-out: IC50 del19/C797S (nM) Km ATP

Sequence of EGFR del19/T790M/C797S (P00533 with tags, fused parts or gaps DEL746-750/T790M/C797S): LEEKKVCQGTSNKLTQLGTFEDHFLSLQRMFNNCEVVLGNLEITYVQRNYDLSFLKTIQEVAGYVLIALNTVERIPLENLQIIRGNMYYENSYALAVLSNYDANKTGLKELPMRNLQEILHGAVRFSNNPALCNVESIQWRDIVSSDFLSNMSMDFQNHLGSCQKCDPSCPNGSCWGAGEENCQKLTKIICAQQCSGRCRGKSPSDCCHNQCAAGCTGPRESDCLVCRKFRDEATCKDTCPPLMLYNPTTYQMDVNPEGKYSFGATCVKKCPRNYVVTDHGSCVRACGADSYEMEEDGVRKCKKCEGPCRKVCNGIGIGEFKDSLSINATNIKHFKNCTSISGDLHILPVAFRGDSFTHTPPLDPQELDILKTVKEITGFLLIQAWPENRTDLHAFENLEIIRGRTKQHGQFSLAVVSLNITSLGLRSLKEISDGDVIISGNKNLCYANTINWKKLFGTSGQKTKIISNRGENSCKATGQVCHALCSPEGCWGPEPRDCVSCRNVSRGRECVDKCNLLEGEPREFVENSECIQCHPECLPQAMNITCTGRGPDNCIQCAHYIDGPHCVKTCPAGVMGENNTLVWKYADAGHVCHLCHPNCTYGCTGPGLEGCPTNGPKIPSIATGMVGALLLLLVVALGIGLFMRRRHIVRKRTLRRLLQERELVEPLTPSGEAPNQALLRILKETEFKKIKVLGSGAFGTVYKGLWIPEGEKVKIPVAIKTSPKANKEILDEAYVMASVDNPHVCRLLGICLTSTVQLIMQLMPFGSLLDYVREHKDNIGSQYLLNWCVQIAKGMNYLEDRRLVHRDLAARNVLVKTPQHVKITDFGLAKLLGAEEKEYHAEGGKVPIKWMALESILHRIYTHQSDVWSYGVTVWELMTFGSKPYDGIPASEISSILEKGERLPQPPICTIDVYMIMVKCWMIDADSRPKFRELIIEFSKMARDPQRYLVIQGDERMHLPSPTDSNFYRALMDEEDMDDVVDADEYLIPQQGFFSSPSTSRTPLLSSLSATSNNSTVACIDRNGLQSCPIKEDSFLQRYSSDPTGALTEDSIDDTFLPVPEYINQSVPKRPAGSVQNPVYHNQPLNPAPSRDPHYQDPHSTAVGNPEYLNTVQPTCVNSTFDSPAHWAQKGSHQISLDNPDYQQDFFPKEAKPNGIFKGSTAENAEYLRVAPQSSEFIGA
Sequence of EGFR wildtype (WT) (P00533 25-1210): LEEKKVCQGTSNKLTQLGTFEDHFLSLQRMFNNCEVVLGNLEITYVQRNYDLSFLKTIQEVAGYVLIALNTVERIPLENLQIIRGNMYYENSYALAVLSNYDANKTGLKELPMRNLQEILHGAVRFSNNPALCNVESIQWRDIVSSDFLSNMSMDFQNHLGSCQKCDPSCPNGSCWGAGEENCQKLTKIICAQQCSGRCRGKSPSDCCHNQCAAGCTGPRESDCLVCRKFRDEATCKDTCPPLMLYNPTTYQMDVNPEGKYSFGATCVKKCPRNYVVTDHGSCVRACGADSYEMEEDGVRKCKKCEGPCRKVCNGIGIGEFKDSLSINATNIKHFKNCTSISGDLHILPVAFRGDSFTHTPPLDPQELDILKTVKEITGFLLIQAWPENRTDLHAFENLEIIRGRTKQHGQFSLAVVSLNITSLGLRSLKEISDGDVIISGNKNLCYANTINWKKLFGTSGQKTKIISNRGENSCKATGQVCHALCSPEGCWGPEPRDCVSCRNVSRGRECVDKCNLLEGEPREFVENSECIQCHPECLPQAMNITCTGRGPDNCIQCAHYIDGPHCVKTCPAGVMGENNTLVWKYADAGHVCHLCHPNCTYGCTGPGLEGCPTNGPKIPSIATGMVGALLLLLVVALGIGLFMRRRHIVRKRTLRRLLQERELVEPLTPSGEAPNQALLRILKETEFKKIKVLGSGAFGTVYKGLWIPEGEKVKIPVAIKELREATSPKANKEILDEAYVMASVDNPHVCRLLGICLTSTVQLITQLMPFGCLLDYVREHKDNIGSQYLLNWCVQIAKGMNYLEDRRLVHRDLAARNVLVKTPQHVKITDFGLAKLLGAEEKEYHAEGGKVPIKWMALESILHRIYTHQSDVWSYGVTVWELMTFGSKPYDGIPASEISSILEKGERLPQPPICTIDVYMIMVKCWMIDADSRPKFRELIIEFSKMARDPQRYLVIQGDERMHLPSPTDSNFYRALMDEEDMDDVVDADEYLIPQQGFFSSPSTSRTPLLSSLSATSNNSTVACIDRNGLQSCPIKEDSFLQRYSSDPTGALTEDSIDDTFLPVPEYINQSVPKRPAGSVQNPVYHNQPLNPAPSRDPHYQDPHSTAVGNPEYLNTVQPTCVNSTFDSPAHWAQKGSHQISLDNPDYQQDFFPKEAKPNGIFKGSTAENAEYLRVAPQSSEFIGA
Sequence of EGFR L858R/C797S (P00533 25-1210 C797S/L858R): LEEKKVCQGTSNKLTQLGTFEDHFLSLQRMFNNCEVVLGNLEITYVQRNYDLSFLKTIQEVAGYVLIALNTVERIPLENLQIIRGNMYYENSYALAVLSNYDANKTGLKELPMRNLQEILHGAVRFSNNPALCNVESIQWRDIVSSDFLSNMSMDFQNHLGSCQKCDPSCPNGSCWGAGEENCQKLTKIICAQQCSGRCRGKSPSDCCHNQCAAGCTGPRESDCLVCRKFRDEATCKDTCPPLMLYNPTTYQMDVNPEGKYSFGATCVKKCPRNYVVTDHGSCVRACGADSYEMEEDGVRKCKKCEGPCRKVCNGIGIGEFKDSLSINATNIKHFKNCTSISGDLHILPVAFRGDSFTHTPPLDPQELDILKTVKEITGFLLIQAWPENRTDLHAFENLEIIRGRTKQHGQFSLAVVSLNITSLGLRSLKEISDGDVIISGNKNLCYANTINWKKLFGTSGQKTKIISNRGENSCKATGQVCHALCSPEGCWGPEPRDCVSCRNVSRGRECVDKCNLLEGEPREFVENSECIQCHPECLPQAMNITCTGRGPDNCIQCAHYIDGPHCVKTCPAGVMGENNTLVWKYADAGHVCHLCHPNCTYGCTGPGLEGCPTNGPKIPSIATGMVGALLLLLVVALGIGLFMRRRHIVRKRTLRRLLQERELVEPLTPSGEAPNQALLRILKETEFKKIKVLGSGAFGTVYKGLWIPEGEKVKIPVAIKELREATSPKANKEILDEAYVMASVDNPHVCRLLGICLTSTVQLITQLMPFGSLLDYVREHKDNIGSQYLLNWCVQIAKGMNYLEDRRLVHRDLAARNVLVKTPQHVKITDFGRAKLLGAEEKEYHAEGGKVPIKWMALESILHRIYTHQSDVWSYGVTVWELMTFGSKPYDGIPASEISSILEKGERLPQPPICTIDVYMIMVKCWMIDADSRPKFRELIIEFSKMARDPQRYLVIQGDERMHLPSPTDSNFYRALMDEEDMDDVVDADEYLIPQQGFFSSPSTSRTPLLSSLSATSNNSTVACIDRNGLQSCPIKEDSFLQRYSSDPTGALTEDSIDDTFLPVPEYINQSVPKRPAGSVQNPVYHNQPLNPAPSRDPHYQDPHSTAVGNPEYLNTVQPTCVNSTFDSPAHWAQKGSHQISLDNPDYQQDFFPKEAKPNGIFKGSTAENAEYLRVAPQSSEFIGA
Sequence of EGFR L858R/T790M/C797S (P00533 25-1210 T790M/C797S/L858R): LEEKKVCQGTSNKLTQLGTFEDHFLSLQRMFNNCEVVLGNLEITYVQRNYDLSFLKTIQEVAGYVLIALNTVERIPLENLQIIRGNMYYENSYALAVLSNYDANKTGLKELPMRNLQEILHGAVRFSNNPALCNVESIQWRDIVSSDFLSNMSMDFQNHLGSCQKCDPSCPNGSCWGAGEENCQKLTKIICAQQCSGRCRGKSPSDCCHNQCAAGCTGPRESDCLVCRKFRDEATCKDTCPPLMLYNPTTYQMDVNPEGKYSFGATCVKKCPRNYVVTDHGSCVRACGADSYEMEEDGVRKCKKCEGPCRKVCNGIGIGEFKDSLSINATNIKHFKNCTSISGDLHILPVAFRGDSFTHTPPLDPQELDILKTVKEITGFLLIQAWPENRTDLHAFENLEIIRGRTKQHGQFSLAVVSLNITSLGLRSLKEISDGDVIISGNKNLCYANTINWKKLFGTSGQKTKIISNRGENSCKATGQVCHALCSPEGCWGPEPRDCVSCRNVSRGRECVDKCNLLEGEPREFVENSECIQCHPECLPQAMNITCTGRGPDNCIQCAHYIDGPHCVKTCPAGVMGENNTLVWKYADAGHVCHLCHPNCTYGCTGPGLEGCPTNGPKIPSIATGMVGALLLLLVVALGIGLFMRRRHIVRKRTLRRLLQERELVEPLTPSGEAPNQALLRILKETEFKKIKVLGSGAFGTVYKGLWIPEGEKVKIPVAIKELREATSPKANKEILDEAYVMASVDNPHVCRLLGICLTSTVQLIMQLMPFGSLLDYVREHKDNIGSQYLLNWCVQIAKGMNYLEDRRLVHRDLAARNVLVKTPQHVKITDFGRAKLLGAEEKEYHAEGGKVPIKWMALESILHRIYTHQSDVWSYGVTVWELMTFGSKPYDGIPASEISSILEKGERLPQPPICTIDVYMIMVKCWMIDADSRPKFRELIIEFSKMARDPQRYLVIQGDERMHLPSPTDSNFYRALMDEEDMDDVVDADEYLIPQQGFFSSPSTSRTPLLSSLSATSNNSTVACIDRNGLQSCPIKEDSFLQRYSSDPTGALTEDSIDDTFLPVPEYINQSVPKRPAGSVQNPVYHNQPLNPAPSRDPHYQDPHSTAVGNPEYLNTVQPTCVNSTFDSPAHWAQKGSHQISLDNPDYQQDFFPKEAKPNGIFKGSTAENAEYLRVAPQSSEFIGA

Compound	IC50 (EGFR L858R/C797S; [1]) [nM]	IC50 (EGFR L858R/C797S; [2]) [nM]	IC50 (EGFR L858R/T790M/C797S; [3]) [nM]	IC50 (EGFR L858R/T790M/C797S; [4]) [nM]	IC50 (EGFR del19/T790M/C797S; [5]) [nM]	IC50 (EGFR del19/T790M/C797S; [6]) [nM]	IC50 (EGFR wildtype (WT); [7]) [nM]	IC50 (EGFR wildtype (WT); [8]) [nM]	IC50 (EGFR del19/C797S; [9]) [nM]	IC50 (EGFR del19/C797S; [10]) [nM]	IC50 (EGFR L858R/C797S; Km ATP, read-out: IC50 L858R/C797S, Km ATP) [nM]	IC50 (EGFR L858R/T790M/C797S; Km ATP, read-out: IC50 L858R/T790M/C797S, Km ATP) [nM]	IC50 (EGFR del19/T790M/C797S; Km ATP, read-out: IC50 del19/T790M/C797S, Km ATP) [nM]	IC50 (EGFR wildtype (WT); Km ATP, read-out: IC50 WT, Km ATP) [nM]	IC50 (EGFR del19/C797S; Km ATP, read-out: IC50 del19/C797S, Km ATP) [nM]	IC50 (EGFR L858R/T790M/C797S; read-out: IC50 L858R/T790M/C797S (nM) 100 μM ATP, 100 μM ATP) [nM]	IC50 (EGFR del19/T790M/C797S; read-out: IC50 del19/T790M/C797S (nM) 100 μM ATP, 100 μM ATP) [nM]	IC50 (EGFR wildtype (WT); read-out: IC50 WT (nM) 100 μM ATP, 100 μM ATP) [nM]	IC50 (EGFR del19/C797S; read-out: IC50 del19/C797S (nM) 100 μM ATP, 100 μM ATP) [nM]
CN(C)[C@H]1CC[C@H](CNc2cc(Nc3ccnc(-c4cnn(S(=O)(=O)C5CC5)c4)n3)ncc2-c2ccn(C(F)F)n2)CC1 [Example 25, N^2-(2-(1-(Cyclopropylsulfonyl)-1H-pyrazol-4-yl)pyrimidin-4-yl)-5-(1-(difluoromethyl)-1H-pyrazol-3-yl)-N^4-(((1r,4r)-4-(dimethylamino)cyclohexyl)methyl)pyridine-2,4-diamine]	–	0.3	–	0.02	–	0.1	–	2.7	–	0.2	–	–	–	–	–	0.1	0.1	2050	0.3
Cn1ccc(-c2cnc(Nc3ccnc(-c4cnn(S(=O)(=O)C5CC5)c4)n3)cc2NCC2(CO)COC2)n1 [Example 228, (3-(((2-((2-(1-(Cyclopropylsulfonyl)-1H-pyrazol-4-yl)pyrimidin-4-yl)amino)-5-(1-methyl-1H-pyrazol-3-yl)pyridin-4-yl)amino)methyl)oxetan-3-yl)methanol]	24.5	0.9	0.2	0.1	0.2	0.1	2360	3.3	0.8	0.6	–	–	–	–	–	–	–	–	–
CS(=O)(=O)N1CC=C(c2nccc(Nc3cc(N[C@H]4CC[C@@](C)(O)CC4)c(-c4ccn(C(F)F)n4)cn3)n2)CC1 [Example 156, (1s,4s)-4-((5-(1-(Difluoromethyl)-1H-pyrazol-3-yl)-2-((2-(1-(methylsulfonyl)-1,2,3,6-tetrahydropyridin-4-yl)pyrimidin-4-yl)amino)pyridin-4-yl)amino)-1-methylcyclohexan-1-ol]	–	339	–	3.2	–	35.2	–	986	–	> 10000	–	–	–	–	–	–	–	–	–
COCC#Cc1nccc(Nc2cc(NC3CCC(C)(O)CC3)c(-c3ccn(C(F)F)n3)cn2)n1 (stereo not shown) [Example 104, (1s,4s)-4-((5-(1-(Difluoromethyl)-1H-pyrazol-3-yl)-2-((2-(3-methoxyprop-1-yn-1-yl)pyrimidin-4-yl)amino)pyridin-4-yl)amino)-1-methylcyclohexan-1-ol]	–	15.6	–	5.9	–	4.3	–	984	–	949	–	–	–	–	–	–	–	–	–
CC(C)Nc1cc(Nc2ccnc(-c3cnn(S(=O)(=O)C4CC4)c3)n2)ncc1-c1ccn(CC(F)F)n1 [Example 248, N^2-(2-(1-(Cyclopropylsulfonyl)-1H-pyrazol-4-yl)pyrimidin-4-yl)-5-(1-(2,2-difluoroethyl)-1H-pyrazol-3-yl)-N^4-isopropylpyridine-2,4-diamine]	–	4.8	–	0.3	–	0.5	–	286	–	14.7	–	–	–	–	–	–	–	–	–
Cc1nn(CC(F)(F)F)cc1-c1nccc(Nc2cc(N[C@H]3CC[C@@H](CCO)CC3)c(-c3cc(C(F)(F)F)n(C)n3)cn2)n1 [Example 334, 2-((1s,4s)-4-((2-((2-(3-Methyl-1-(2,2,2-trifluoroethyl)-1H-pyrazol-4-yl)pyrimidin-4-yl)amino)-5-(1-methyl-5-(trifluoromethyl)-1H-pyrazol-3-yl)pyridin-4-yl)amino)cyclohexyl)ethan-1-ol]	–	–	–	–	–	–	–	–	–	–	17.1	2.8	4.2	24.6	41.2	–	–	–	–

Second part, led by results:

IC50 (EGFR L858R/C797S; [1]) [nM]	IC50 (EGFR L858R/C797S; [2]) [nM]	IC50 (EGFR L858R/T790M/C797S; [3]) [nM]	IC50 (EGFR L858R/T790M/C797S; [4]) [nM]	IC50 (EGFR del19/T790M/C797S; [5]) [nM]	IC50 (EGFR del19/T790M/C797S; [6]) [nM]	IC50 (EGFR wildtype (WT); [7]) [nM]	IC50 (EGFR wildtype (WT); [8]) [nM]	IC50 (EGFR del19/C797S; [9]) [nM]	IC50 (EGFR del19/C797S; [10]) [nM]	IC50 (EGFR L858R/C797S; Km ATP, read-out: IC50 L858R/C797S, Km ATP) [nM]	IC50 (EGFR L858R/T790M/C797S; Km ATP, read-out: IC50 L858R/T790M/C797S, Km ATP) [nM]	IC50 (EGFR del19/T790M/C797S; Km ATP, read-out: IC50 del19/T790M/C797S, Km ATP) [nM]	IC50 (EGFR wildtype (WT); Km ATP, read-out: IC50 WT, Km ATP) [nM]	IC50 (EGFR del19/C797S; Km ATP, read-out: IC50 del19/C797S, Km ATP) [nM]	Compound	IC50 (EGFR L858R/T790M/C797S; read-out: IC50 L858R/T790M/C797S (nM) 100 μM ATP, 100 μM ATP) [nM]	IC50 (EGFR del19/T790M/C797S; read-out: IC50 del19/T790M/C797S (nM) 100 μM ATP, 100 μM ATP) [nM]	IC50 (EGFR wildtype (WT); read-out: IC50 WT (nM) 100 μM ATP, 100 μM ATP) [nM]	IC50 (EGFR del19/C797S; read-out: IC50 del19/C797S (nM) 100 μM ATP, 100 μM ATP) [nM]
3.7	0.4	0.2	0.1	0.4	0.2	384	1.1	0.7	0.3	–	–	–	–	–	CNC[C@H]1CC[C@H](CNc2cc(Nc3ccnc(-c4cnn(S(=O)(=O)C5CC5)c4)n3)ncc2-c2ccn(C(F)F)n2)CC1 [Example 192, N^2-(2-(1-(Cyclopropylsulfonyl)-1H-pyrazol-4-yl)pyrimidin-4-yl)-5-(1-(difluoromethyl)-1H-pyrazol-3-yl)-N^4-(((1r,4r)-4-((methylamino)methyl)cyclohexyl)methyl)pyridine-2,4-diamine]	–	–	–	–
1.1	0.4	0.3	0.1	0.3	0.2	1540	2.8	0.5	0.2	–	–	–	–	–	Cn1ccc(-c2cnc(Nc3ccnc(-c4cnn(S(=O)(=O)C5CC5)c4)n3)cc2NCC2CCC(NCCF)CC2)n1 (stereo not shown) [Example 131, N^2-(2-(1-(Cyclopropylsulfonyl)-1H-pyrazol-4-yl)pyrimidin-4-yl)-N^4-((4-((2-fluoroethyl)amino)cyclohexyl)methyl)-5-(1-methyl-1H-pyrazol-3-yl)pyridine-2,4-diamine]	–	–	–	–
–	123	–	2.7	–	3.4	–	488	–	370	–	–	–	–	–	CC(Nc1cc(Nc2ccnc(-c3cnn(S(=O)(=O)C4CC4)c3)n2)ncc1-c1ccn(C(F)F)n1)C(F)F (stereo not shown) [Example 213, N^2-(2-(1-(Cyclopropylsulfonyl)-1H-pyrazol-4-yl)pyrimidin-4-yl)-5-(1-(difluoromethyl)-1H-pyrazol-3-yl)-N^4-(1,1-difluoropropan-2-yl)pyridine-2,4-diamine]	–	–	–	–
3040	4.2	3.3	0.1	0.3	–	> 10000	84.7	2.2	0.7	–	–	–	–	–	O=S(=O)(C1CC1)n1cc(-c2nccc(Nc3cc(N[C@H]4CC[C@H](CO)CC4)c(-c4ccn(C(F)F)n4)cn3)n2)cn1 [Example 198, ((1r,4r)-4-((2-((2-(1-(Cyclopropylsulfonyl)-1H-pyrazol-4-yl)pyrimidin-4-yl)amino)-5-(1-(difluoromethyl)-1H-pyrazol-3-yl)pyridin-4-yl)amino)cyclohexyl)methanol]	–	–	–	–
25.4	5.3	1.2	0.2	0.8	0.6	> 10000	8.2	2.4	1.1	–	–	–	–	–	Cn1nc(-c2cnc(Nc3ccnc(-c4cnn(S(=O)(=O)C5CC5)c4)n3)cc2N[C@H]2CC[C@@H](NCCF)CC2)cc1C(F)(F)F [Example 255, N^2-(2-(1-(Cyclopropylsulfonyl)-1H-pyrazol-4-yl)pyrimidin-4-yl)-N^4-((1s,4s)-4-((2-fluoroethyl)amino)cyclohexyl)-5-(1-methyl-5-(trifluoromethyl)-1H-pyrazol-3-yl)pyridine-2,4-diamine]	–	–	–	–
2.1	–	0.3	–	0.3	–	3390	–	2	–	–	–	–	–	–	CNC1CCC(Nc2cc(Nc3ccnc(-c4cnn(S(=O)(=O)C5CC5)c4)n3)ncc2-c2ccn(C(F)F)n2)CC1 (stereo not shown) [Example 16, N^2-(2-(1-(Cyclopropylsulfonyl)-1H-pyrazol-4-yl)pyrimidin-4-yl)-5-(1-(difluoromethyl)-1H-pyrazol-3-yl)-N^4-((1s,4s)-4-(methylamino)cyclohexyl)pyridine-2,4-diamine]	–	–	–	–
3.5	–	0.1	–	0.1	–	1370	–	0.4	–	–	–	–	–	–	CN(C)CCCn1ccc(-c2cnc(Nc3ccnc(-c4cnn(S(=O)(=O)C5CC5)c4)n3)cc2N[C@H]2CC[C@@H](NCCF)CC2)n1 [Example 301, N^2-(2-(1-(Cyclopropylsulfonyl)-1H-pyrazol-4-yl)pyrimidin-4-yl)-5-(1-(3-(dimethylamino)propyl)-1H-pyrazol-3-yl)-N^4-((1s,4s)-4-((2-fluoroethyl)amino)cyclohexyl)pyridine-2,4-diamine]	–	–	–	–
3.5	0.7	0.5	0.1	0.3	0.3	> 10000	10	0.7	0.5	–	–	–	–	–	O=C1CC[C@]2(CC[C@H](Nc3cc(Nc4ccnc(-c5cnn(S(=O)(=O)C6CC6)c5)n4)ncc3-c3ccn(C(F)F)n3)CC2)N1 [Example 19, (5s,8s)-8-((2-((2-(1-(Cyclopropylsulfonyl)-1H-pyrazol-4-yl)pyrimidin-4-yl)amino)-5-(1-(difluoromethyl)-1H-pyrazol-3-yl)pyridin-4-yl)amino)-1-azaspiro[4.5]decan-2-one]	–	–	–	–
